This is an account of results in PubChem BioAssay (NCI).

Test systems include HOP-92 NSCLC; HOP-62 NSCLC; HCT-116 colon; SK-MEL-28 melanoma; U251 CNS; IGROV1 ovarian; COLO 205 colon; HL-60(TB) leukemia; SNB-75 CNS; SF-295 CNS.
What all share (experiment): inhibition of tumour cell growth, NCI panel, 48 h

Values joined by “and” are separate entries in the source; they are usually repeats but may differ in a detail not shown here. Equal values may be shown once.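 Step 1: Grow cells in 96-well plates. Step 2: Expose to compound for 48 hours at 5 concentrations. Step 3: Interpolate endpoints linearly; if unreached, use highest concentration. At the GI50, growth is halved. Definition used: TGI = concentration required for complete inhibition of growth.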 Where only a bound is given, the exact number is not on record here.

In the case of `Cc1c2c(nn1C(=O)c1nn(-c3ccc(Cl)cc3)cc1O)-c1ccccc1CC2`, the GI50 in the experiment with HOP-92 NSCLC was 0.0521 µM; with HOP-62 NSCLC, 0.0432 µM; with HCT-116 colon it was 0.0339 µM; in the experiment with SK-MEL-28 melanoma it was 0.293 µM; with U251 CNS, 0.0292 µM; in the experiment on IGROV1 ovarian, 0.0429 µM. The GI50 in the experiment on COLO 205 colon is 0.323 µM; with HL-60(TB) leukemia it was 0.0507 µM; in the experiment on SNB-75 CNS it was 0.0303 µM; with SF-295 CNS, 0.0119 µM. For the same molecule, the TGI with HOP-92 NSCLC, with HOP-62 NSCLC, in the experiment on HCT-116 colon, with SK-MEL-28 melanoma, with U251 CNS and in the experiment on IGROV1 ovarian was greater than 100 µM in each case. The TGI in the experiment with COLO 205 colon is 4.22 µM; in the experiment with HL-60(TB) leukemia, 1.12 µM; in the experiment on SNB-75 CNS it was greater than 100 µM; in the experiment on SF-295 CNS it was 0.0548 µM.

Turning to `N/C(=N\N=C\c1cccs1)NO`, the TGI with HOP-92 NSCLC, with HOP-62 NSCLC, in the experiment on HCT-116 colon, with SK-MEL-28 melanoma, with U251 CNS and with IGROV1 ovarian was greater than 100 µM throughout. Moreover, the TGI in the experiment with COLO 205 colon, in the experiment on HL-60(TB) leukemia, with SNB-75 CNS and in the experiment on SF-295 CNS was greater than 100 µM in each case.

`CCOC(=O)c1ccc(N(CCOS(C)(=O)=O)CCOS(C)(=O)=O)cc1C`: the GI50 with HOP-92 NSCLC is 36.7 µM; with HOP-62 NSCLC it was 17.6 µM; with HCT-116 colon, 33.4 µM; with SK-MEL-28 melanoma, greater than 100 µM; in the experiment on U251 CNS, 26.4 µM; with IGROV1 ovarian, 91.4 µM. For the same molecule, the GI50 with COLO 205 colon is 38.4 µM; in the experiment on HL-60(TB) leukemia it was 8.08 µM; with SNB-75 CNS, 34.5 µM; in the experiment on SF-295 CNS, 21.9 µM. Besides, the TGI was greater than 100 µM in the experiment on HOP-92 NSCLC; 55 µM with HOP-62 NSCLC; greater than 100 µM in the experiment on HCT-116 colon; greater than 100 µM in the experiment with SK-MEL-28 melanoma; greater than 100 µM in the experiment on U251 CNS; greater than 100 µM with IGROV1 ovarian. Besides, the TGI is greater than 100 µM in the experiment on COLO 205 colon, 51.2 µM in the experiment with HL-60(TB) leukemia, 87.1 µM with SNB-75 CNS and greater than 100 µM in the experiment on SF-295 CNS.

With `COc1cc2ccc3c4c(OC)cc(OC)c(OC)c4c(=O)n(C)c3c2cc1OC`, the GI50 in the experiment with HOP-92 NSCLC was 1.55 µM; in the experiment with HOP-62 NSCLC, 1.4 µM; with HCT-116 colon, 0.455 µM; with SK-MEL-28 melanoma it was 8.01 µM; in the experiment with U251 CNS it was 0.299 µM; in the experiment with COLO 205 colon, 1.3 µM. The GI50 with HL-60(TB) leukemia was 0.351 µM; with SNB-75 CNS, 3.25 µM; in the experiment with SF-295 CNS it was 0.809 µM. Further, the TGI in the experiment with HOP-92 NSCLC is 16.7 µM and 40.4 µM; in the experiment with HOP-62 NSCLC, 7.11 µM and > 43.5 µM; in the experiment on SK-MEL-28 melanoma it was 16.7 µM and > 48.5 µM; in the experiment with U251 CNS, 3.71 µM and 10.6 µM; with IGROV1 ovarian it was 16.7 µM and > 45.6 µM; in the experiment with COLO 205 colon, 4.09 µM and 9.95 µM. Moreover, the TGI in the experiment on HL-60(TB) leukemia was 1.16 µM; with SNB-75 CNS it was 14.5 µM and > 42.5 µM; with SF-295 CNS, 2.89 µM and > 22.4 µM.

With `COc1cc(/C=C2\[C@H]3c4c(c(OC)c(C)c(OC)c4OC)C[C@@H](C(=O)N2Cc2ccccc2)N3C(=O)OC(C)C)c(OC)c(C)c1OC`, the TGI with HOP-92 NSCLC, in the experiment on HOP-62 NSCLC, with HCT-116 colon, with SK-MEL-28 melanoma, with U251 CNS and in the experiment with IGROV1 ovarian was greater than 100 µM each time. The TGI in the experiment with COLO 205 colon, in the experiment with HL-60(TB) leukemia, with SNB-75 CNS and in the experiment on SF-295 CNS was greater than 100 µM in each case.

Take `CN1CCC[C@@H]1CCO[C@](C)(c1ccccc1)c1ccc(Cl)cc1`: the GI50 in the experiment with HOP-92 NSCLC is 1.8 µM; in the experiment on HOP-62 NSCLC, 10.1 µM; in the experiment on HCT-116 colon, 3.62 µM; with SK-MEL-28 melanoma it was 2 µM; in the experiment on U251 CNS, 3.83 µM; in the experiment with IGROV1 ovarian, 4.16 µM. Besides, the GI50 is 1.75 µM with COLO 205 colon, 4.03 µM with HL-60(TB) leukemia, 2.29 µM in the experiment with SNB-75 CNS and 2.32 µM in the experiment with SF-295 CNS. Also, the TGI is 8.37 µM with HOP-92 NSCLC; 23.1 µM in the experiment with HOP-62 NSCLC; 13.7 µM in the experiment on HCT-116 colon; 4.36 µM in the experiment with SK-MEL-28 melanoma; 15.8 µM in the experiment with U251 CNS; 18.1 µM in the experiment on IGROV1 ovarian. The TGI was determined as 3.56 µM in the experiment with COLO 205 colon, 18 µM in the experiment on HL-60(TB) leukemia, 12.7 µM with SNB-75 CNS and 6.43 µM in the experiment with SF-295 CNS.

For the molecule `C#CCOCn1cnc2c(=S)nc[nH]c21`, the TGI in the experiment with HOP-92 NSCLC, in the experiment with HOP-62 NSCLC, in the experiment with SK-MEL-28 melanoma, in the experiment with U251 CNS, with IGROV1 ovarian and with COLO 205 colon was greater than 100 µM each time. In addition, the TGI in the experiment on HL-60(TB) leukemia was greater than 100 µM; in the experiment with SNB-75 CNS, 98.9 µM; in the experiment with SF-295 CNS, greater than 100 µM.

On to `CCC1=C(C)/C(=C/c2[nH]c(CBr)c(CC)c2C)N=C1CBr`, for which the TGI in the experiment with HOP-92 NSCLC was 26.7 µM; in the experiment with HOP-62 NSCLC, 34.8 µM; in the experiment with SK-MEL-28 melanoma, 34.2 µM; in the experiment with U251 CNS, 24.6 µM; in the experiment with IGROV1 ovarian, 38.1 µM; with COLO 205 colon, 30.2 µM. Besides, the TGI with HL-60(TB) leukemia is 25.6 µM; in the experiment with SNB-75 CNS it was 55.9 µM; with SF-295 CNS, 42.7 µM.

Turning to `COc1ccc(C(c2ccc(C(C)C)cc(=O)c2O)c2ccc3cccnc3c2O)cc1` (configuration not stated), the TGI is 0.898 µM with HOP-92 NSCLC; 2.29 µM in the experiment on HOP-62 NSCLC; 12.8 µM in the experiment with HCT-116 colon; 3.5 µM with U251 CNS; 15.3 µM in the experiment on IGROV1 ovarian; 19.3 µM in the experiment with COLO 205 colon. Moreover, the TGI in the experiment on HL-60(TB) leukemia worked out at 6.23 µM; in the experiment on SNB-75 CNS, 0.589 µM; in the experiment with SF-295 CNS it was 7.43 µM.

`CC(C)NCC(O)COC(=O)c1cccs1` (configuration not stated): the TGI in the experiment on HOP-92 NSCLC, in the experiment with HOP-62 NSCLC, in the experiment with SK-MEL-28 melanoma, in the experiment with IGROV1 ovarian, with COLO 205 colon and in the experiment on HL-60(TB) leukemia was greater than 100 µM each time. This molecule yielded a TGI in the experiment on SNB-75 CNS greater than 100 µM.
